From patent publication USRE46698E1, “Use of cyclohexanol derivatives as antimicrobial active compounds” (MERCK PATENT GMBH, priority 2011, dated 2018)

Key:
Aspergillus brasiliensis = assay: Antimicrobial action, microbe count (Example 6); assay type: cell-based; details: conc. 0.5%, H2O (12% of ethanol), count t0 2.0 × 10^4
Procedure: (§1) For sample preparation, the substances being investigated are each dissolved or homogeneously dispersed in an amount of 1.0% in a water/ethanol mixture (12% of ethanol) and subsequently diluted with bacteria suspension in the ratio 1 to 2. P. acnes (ATCC 6919) is pre-incubated under anaerobic conditions for 48 h at 35° C. on RMC agar (Merck 1.05410). A bacteria suspension having an optical density (OD) of about 1.5 is subsequently prepared in RMC broth (Merck 1.05411, double-concentrated). 150 μl of freshly prepared sample and 100 μl of paraffin are added to 150 μl of bacteria suspension per well. The optical density is determined over the course of time at 37° C. using a Bioscreen C™ analyser compared with the negative control (=vehicle without test substance). Compared with the negative control, reduced optical densities confirm growth-inhibiting substance actions.
(§2) For sample preparation, the substances being investigated are each dissolved or homogeneously dispersed in an amount of 1.0% in a water/ethanol mixture (12% of ethanol) (=sample). A bacteria suspension of S. epidermidis (ATCC 12228) having an optical density of 1.0 in CASO broth (Merck 1.05459) is diluted 1:10000 with CASO broth. 500 μl of sample are added to 500 μl of bacteria suspension, and the mixture is incubated at 35° C. for 24 h. After the incubation, the test batches are diluted to −6 in 10 unit steps, and 0.1 ml of each is plated-out on CASO agar (Merck 1.05458) and incubated at 35° C. for 24 h.
(§3) In order to determine the initial microbe count, 0.1 ml of the bacteria suspension used are plated-out on CASO agar (Merck 1.05458) and incubated at 35° C. for 24 h.
(§4) The colonies are subsequently counted, and the microbe count per ml is determined compared with the negative control (12% of ethanol in water).
(§5) The procedure corresponds to that described in Examples 4 and 5 using the microorganisms shown below. The concentrations indicated are the final use concentrations. In order to prepare the stock solution, double the final concentration were prepared in the solvent indicated. This was subsequently diluted 1:2 with the corresponding microbe suspension. In the case of Aspergillus brasiliensis, the microbe count determination was exceptionally carried out after 48 h.

Malassezia furfur = assay: Antimicrobial action, microbe count (Example 6); assay type: cell-based; details: conc. 1.0%, H2O, count t0 4.0 × 10^2
Procedure: as §1, §2, §3, §4, §5

Echerichia coli = assay: Antimicrobial action, microbe count (Example 6); assay type: cell-based; details: conc. 0.5%, H2O (12% of ethanol), count t0 4.6 × 10^4
Procedure: as §1, §2, §3, §4, §5

Serratia marcescens = assay: Antimicrobial action, microbe count (Example 6); assay type: cell-based; details: conc. 0.5%; for Δlog: t24 h
Procedure: as §1, §2, §3, §4, §5

Pseudomonas aeruginosa = assay: Antimicrobial action, microbe count (Example 6); assay type: cell-based; details: conc. 0.5%, H2O (12% of ethanol), count t0 6.8 × 10^4
Procedure: as §1, §2, §3, §4, §5

Corynebacterium xerosis = assay: Antimicrobial action, microbe count (Example 6); assay type: cell-based; details: conc. 0.5%, H2O (12% of ethanol), count t0 3.5 × 10^4
Procedure: as §1, §2, §3, §4, §5

[1] = tested on: Staphylococcus epidermidis; assay: Antimicrobial action, microbe count (Example 6); assay type: cell-based; details: conc. 0.5%, H2O (12% of ethanol), count t0 3.4 × 10^4
Procedure: as §1, §2, §3, §4, §5

Salmonella enterica = assay: Antimicrobial action, microbe count (Example 6); assay type: cell-based; details: conc. 0.5%; for Δlog: t24 h
Procedure: as §1, §2, §3, §4, §5

Propionibacterium acnes = assay: Antimicrobial action, microbe count (Example 6); assay type: cell-based; details: conc. 0.5%, H2O (12% of ethanol), count t0 2.0 × 10^4
Procedure: as §1, §2, §3, §4, §5

[2] = Densities and viscosities, Ubbelohde viscometer, to estimate spreadability (Example 10); assay type: physicochemical; details: 25° C.
Procedure: Measurement of the Dynamic Viscosities in Order to Estimate the Spreadability at 25° C. After measurement of the densities and kinematic viscosities using an Ubbelohde viscometer, the following dynamic viscosities arise: Since spreadabilities and viscosities of cosmetic emollients correlate well, good spreadabilities can be concluded from the viscosities determined.

[3] = Rancimate assay, antioxidative capacity (Example 1); details: 0.1% w/w in soya oil; 120° C.; input of air 201/h
Procedure: The antioxidative capacity of substances I-9, I-10 and I-2 is determined in the so-called Rancimate assay. The comparative substances used are 4-t-butyl-1-cyclohexanol and tocopherol. The positive standard employed is BHT. The measurement parameter is the time duration (induction time) of the increase in the conductivity of unstabilised soya oil on exposure to air at elevated temperature. The longer the induction time, the greater the stabilising or antioxidant action. The following boundary conditions were maintained: input of air 201/h; temperature 120° C. and sample concentrations of 0.1% w/w each in soya oil. For each test substance, a relative antioxidation-protection factor is determined, which corresponds to the ratio of the induction times with and without test substance: […]

[4] = tested on: S. epidermidis (ATCC 12228); assay: Microbe count determination, bacteriostatic or bactericidal action (Example 5); assay type: cell-based, Staphylococcus epidermidis; details: 24 h at 35° C.
Procedure: as §2, §3, §4

[5] = H2O (12% of ethanol), count t0 6.8 × 10^4
[6] = H2O (12% of ethanol), count t0 6.0 × 10^4

Q: For CCOC(=O)C1CCCCC1O (stereo not shown) [Substance I-2], which Δlog (Aspergillus brasiliensis; count after 48 h) is on record?
A: −0.30

Q: And the “Microbe count t24 h” value (Aspergillus brasiliensis; count carried out after 48 h)?
A: 1.0 × 10^4

Q: What about the “Microbe count t24 h” value (Malassezia furfur) of the same compound?
A: 0

Q: And the Δlog (Malassezia furfur; t24 h)?
A: −2.60

Q: And the “Microbe count t24 h” value (Echerichia coli)?
A: 1.8 × 10^3

Q: What about the Δlog (Echerichia coli; t24 h) of the same compound?
A: −1.41

Q: And the “Microbe count t24 h” value (Serratia marcescens; [5])?
A: 0

Q: What about the Δlog (Serratia marcescens; [5]) of the same compound?
A: −3.83

Q: And the “Microbe count t24 h” value (Serratia marcescens; H2O, count t0 2.9 × 10^5)?
A: 9.0 × 10^5

Q: What about the Δlog (Serratia marcescens; H2O, count t0 2.9 × 10^5) of the same compound?
A: +0.49

Q: And the “Microbe count t24 h” value (Pseudomonas aeruginosa)?
A: 0

Q: And the Δlog (Pseudomonas aeruginosa; t24 h)?
A: −4.83

Q: What about the “Microbe count t24 h” value (Corynebacterium xerosis) of the same compound?
A: 0

Q: And the Δlog (Corynebacterium xerosis; t24 h)?
A: −4.54

Q: What about the “Microbe count t24 h” value [1] of the same compound?
A: 2.0 × 10^4

Q: And the Δlog ([1]; t24 h)?
A: −0.23

Q: What about the “Microbe count t24 h” value (Salmonella enterica; [6]) of the same compound?
A: 0

Q: What about the Δlog (Salmonella enterica; [6]) of the same compound?
A: −4.78

Q: What about the “Microbe count t24 h” value (Salmonella enterica; H2O, count t0 1.0 × 10^6) of the same compound?
A: 5.0 × 10^4

Q: And the Δlog (Salmonella enterica; H2O, count t0 1.0 × 10^6)?
A: −1.30

Q: What about the “Microbe count t24 h” value (Propionibacterium acnes) of the same compound?
A: 1.2 × 10^4

Q: And the Δlog (Propionibacterium acnes; t24 h)?
A: −0.22

Q: And the Density [2]?
A: 1.0564 g/mL

Q: What about the “Dynamic viscosity (kinematic viscosity × density)” value [2] of the same compound?
A: 16.4 mPas

Q: What about the Kinematic viscosity ([2]; Ubbelohde viscometer) of the same compound?
A: 15.5 mm^2/s

Q: And the “Antioxidation-protection factor (ratio of the induction times with and without test substance)” value [3]?
A: 1.15

Q: And the Final microbe count ([4]; 1.0% sample in 12% ethanol, 500 μl + 500 μl bacteria suspension, initial count 3.8 × 10^4, negative control 5.0 × 10^7)?
A: 2.9 × 10^4 CFU/ml

Q: What about the “Note: bacteriostatic or bactericidal action” value ([4]; S. epidermidis) of the same compound?
A: bacteriostatic
